# Patent publication US12714698B2, “Compositions and methods for treating or preventing dermal disorders” (Drexel University, priority 2015, dated 2026)
# Read-outs that look alike come from different tables or passages of the source.
# Columns and labels:
# [1] = test system: human cardiac fibroblasts; experiment: Mitochondrial membrane potential, mass, superoxide and total ROS by flow cytometry; format: cell-based; conditions: control cultures (no rapamycin) treated with scavenger during NRTI exposure
# Experimental: (§1) Cell culture experiments utilizing NRTIs were of the following design. Cultures of either human lung or cardiac fibroblasts were cultivated according to standard culture protocols for these cells (Cristofalo, et al., Journal of Tissue Culture Methods 1980, 6:117-121). Parallel sets of cultures were maintained in normal growth media or in normal growth media with the addition of 1 nM rapamycin. Cultures were maintained with 1 nM rapamycin (Enzo Biologicals) for two weeks before exposure to NRTIs. Cell cultures were exposed to NRTIs at indicated concentrations in individual experiments (generally 10-20 μg/ml) for 7 days, with a change of media and fresh NRTIs at day 4. Mitochondrial measurements, bioanalyzer measurements, immunoblotting for protein expression and phosphorylation status, and assays for senescence were performed at the end of this 7-day period.
# (§2) Cell culture reagents were from Cellgro, unless indicated. WI-38 fetal-lung primary human fibroblasts or human cardiac fibroblasts were grown in MEM supplemented with 10% fetal bovine serum, 1% L-glutamine, MEM vitamins, and MEM non-essential amino acids. Cells were maintained in a 37° C. in 5% CO2 incubator. For treatment studies, cells were treated with 1 nM rapamycin (Enzo Biologicals) for two weeks before treatment with NRTIs. Cells were maintained by trypsinization and reseeding at a cell density of 1×10^4/cm^2 every 7 to 10 days. Emtricitabine (FTC) and tenofovir disoproxil fumarate (TDF) were kindly provided by the NIH AIDS Research & Reference Reagent program. During the 7-day exposure to the NRTIs, the pharmacologic inhibitors PD98059 (10 μM, Santa Cruz Biotechnologies), BI-D1870, GW5074, and SB203580 (10 μM, Enzo Biologicals) were added to the culture medium either during the final 48 hours or for the final 2 hours depending upon the experiment. During the 7-day exposure to NRTIs, Trolox (500 μM) and N-acetylcysteine (100 μM, Acros Organics) were added every other day. Mito-Q (20 nM) and TPP (20 nM) were kindly provided by Dr. Brett Kaufmann at the University of Pennsylvania School of Veterinary Medicine. Vector and mt-catalase adenoviruses (MOI's 25, 50, and 75) were purchased from Gene Transfer Vector Core from the University of Iowa.
# Mitochondrial membrane potential was detected by incubating cells with 25 nM TMRE (Molecular Probes). Mitochondrial mass was evaluated by incubating the cells with 100 nM Mitotracker Green FM (Molecular Probes). Mitochondrial superoxide anion levels were detected by incubating the cells with 5 μM MitoSox Red (Molecular Probes). Total cellular levels of ROS were detected by incubating the cells with 10 μM 2′,7′-dichlorofluoroscein diacetate (DCF-DA; Sigma-Aldrich) in 1% fetal bovine serumsupplemented MEM and washing twice with Krebs Ringer phosphate glucose buffer (145 mM NaCl, 5.7 mM NaH2PO4, 4.86 mM KCL, 0.54 mM CaCl2), 1.22 mM MgSO4, and 5.5 mM glucose) following the incubation period. For the aforementioned assessments, incubation was performed at 37° C. in 5% CO2 for 30 minutes and cells were harvested in 2.5% trypsin-EDTA with serum-containing medium. Cells were immediately analyzed with a Guava EasyCyte Mini employing the Guava Express Plus program (Guava Technologies).
# [2] = test system: human cardiac fibroblasts; experiment: Mitochondrial respiration, Seahorse XF24 Bioanalyzer; format: cell-based; conditions: mito-Q during NRTI exposure
# Experimental: Cell culture experiments utilizing NRTIs were of the following design. Cultures of either human lung or cardiac fibroblasts were cultivated according to standard culture protocols for these cells (Cristofalo, et al., Journal of Tissue Culture Methods 1980, 6:117-121). Parallel sets of cultures were maintained in normal growth media or in normal growth media with the addition of 1 nM rapamycin. Cultures were maintained with 1 nM rapamycin (Enzo Biologicals) for two weeks before exposure to NRTIs. […] Mitochondrial measurements, bioanalyzer measurements, immunoblotting for protein expression and phosphorylation status, and assays for senescence were performed at the end of this 7-day period. Mitochondrial function was measured using the XF cell mito stress test kit on a Seahorse XF24 Bioanalyzer (Seahorse Bioscience). Cells were seeded at a density of 15,000 cells per well in an XF24 microplate. Following acquisition, results were normalized based upon 10^6 cells counted using a Guava EasyCyte Mini (Millipore), where applicable. […] Respiration rates and proton leak were assessed as outlined in published methods (Hill, et al., Biological chemistry 2012, 393:1485-1512). Mitochondrial respiration was calculated based upon oxygen consumption rate measurements in triplicates from cells seeded in at least quadruplicates. Basal respiration represents the initial oxygen consumption rate measurements and maximal respiration represents the oxygen consumption rate measurements following FCCP addition. ATP-linked respiration is represented as the oligomycin-sensitive oxygen change to basal oxygen consumption rate. Proton leak represents the oligmycin insensitive oxygen consumption rate. […] All data was normalized to cell number by counting cells in each well at the completion of the mitochondrial assessments.
# [3] = test system: human cardiac fibroblasts; experiment: Immunoblot of senescence markers (p53, p21, p16, lamin B1, IL-6); format: cell-based; conditions: ROS-reducing intervention during NRTI exposure, no rapamycin
# Experimental: as §1, §2
# Cell protein extracts were prepared by extracting with radioimmunoprecipitation assay (RIPA) buffer containing a protease inhibitor cocktail (Sigma-Aldrich) and phosphatase inhibitors, NaF and sodium orthovanadate. Protein concentration was quantified using a bicinchoninic acid (BCA) assay (Pierce Biotechnology). […] For co-immunoprecipitation, cell protein extracts were prepared in HNTG buffer containing a protease inhibitor cocktail and quantified using BCA assay. […]
# [4] = test system: human cardiac fibroblasts; experiment: Senescence-associated beta-galactosidase detection; format: cell-based; conditions: ROS-reducing intervention during NRTI exposure, no rapamycin
# Experimental: as §1
# Assessment of SA-β-gal activity was performed by plating cells following respective treatments at low density (0.5×10^4/cm^2) to prevent false positive staining known to occur in high density cultures. […] Following incubation, cells were washed three times with PBS and at least 500 cells were counted for each sample in triplicates. Positive cells (blue cells) were expressed as a percentage of total cells.
# [5] = test system: ribosomal S6 protein and MDM2; experiment: Immunoblot of ribosomal S6 protein and MDM2 phosphorylation (mTORC1/p70S6K signaling); format: cell-based, human
# Experimental: as §1, §2
# Cell protein extracts were prepared by extracting with radioimmunoprecipitation assay (RIPA) buffer containing a protease inhibitor cocktail (Sigma-Aldrich) and phosphatase inhibitors, NaF and sodium orthovanadate. Protein concentration was quantified using a bicinchoninic acid (BCA) assay (Pierce Biotechnology). Western blot analysis was performed using 15 to 30 μg of protein extracts that were run on SDS-PAGE and transferred onto nitrocellulose (Biorad) membranes. Blots were incubated with antibodies specific for: beta-actin (Sigma-Aldrich), TFAm, parkin, p16, phospho(S82)HSP27, HSP27 (Santa Cruz Biotechnologies), p53, 21, catalase, MDM2 (EMD Millipore), VDAC, phospho(S235/236)-ribosomal protein S6, ribosomal protein S6, phospho(S166)-MDM2, phospho(5473)-AKT, AKT, beta-tubulin (Cell Signaling), p62 (Enzo Biologicals), IL-6 (NeoBiolab), lamin B1, PINK1, and Mitoprofile Total OXPHOS Cocktail (complex I-NDUFB8 subunit, CII-SDHB subunit, […]2 subunit, and CIV-mitochondrial COX1 subunit) (Abcam) according to manufacturers' instructions. Western blots were visualized using IRDye 680 and 800 LI-COR secondary antibodies on a LI-COR Odyssey using LI-COR Odyssey software version 3.0 (LI-COR Biosciences). For co-immunoprecipitation, cell protein extracts were prepared in HNTG buffer containing a protease inhibitor cocktail and quantified using BCA assay. Protein extracts at the concentration of 0.5 mg were pre-cleared with protein A/G beads (Santa Cruz Biologicals) for 30 minutes. After centrifugation at 2,000 rpm for 5 minutes at 4° C., the supernatant was incubated with the primary antibody at manufacturer's recommended concentration overnight at 4° C. An IgG antibody (Cell Signaling) was used as a non-specific control.
# [6] = test system: ribosomal S6 protein and MDM2; experiment: as above; format: cell-based, human; remark: listed apart in the source
# human fibroblasts = experiment: Ethidium bromide mitochondrial stress in human fibroblasts; conditions: exposure to ethidium bromide
# Description: Human fibroblasts were exposed to ethidium bromide for 7 days and cell viability measured at that time.
# [7] = agent added to NRTI-exposed cardiac fibroblasts
# [8] = replicative senescent cardiac fibroblasts
# [9] = serum-free 48 hours, exposure 2 hours, 1 to 400 μM
smiles,measurement,setting,value
COC1=C(OC)C(=O)C(CCCCCCCCCC[P+](c2ccccc2)(c2ccccc2)c2ccccc2)=C(C)C1=O [Mito-Q],mitochondrial ROS following exposure to NRTIs,[1],ameliorated
same,mitochondrial ROS following exposure to NRTIs,[1]; listed as mito-Q,lower level
same,"NRTI-induced increase in basal respiration, ATP-linked respiration and proton leak",[2],partially alleviated
same,maximal respiration,[2],less affected
same,"increase in senescence-associated proteins (p53, p21, p16) following NRTI exposure",[3],ameliorated
same,percentage of cells positive for SA-β-gal staining,[4],reduced
same,MDM2 phosphorylation in cells exposed to NRTIs,[5]; [7],reduced
same,ribosomal S6 phosphorylation in cells exposed to NRTIs,[5]; [7],reduced
C[S+]([O-])c1ccc(-c2nc(-c3ccncc3)c(-c3ccc(F)cc3)[nH]2)cc1 (stereo not drawn) [SB-203580],MDM2 phosphorylation in cells exposed to NRTIs,[5],no effect
same,ribosomal S6 phosphorylation in cells exposed to NRTIs,[5],no effect
CC(C)CCN1c2nc(Nc3cc(F)c(O)c(F)c3)ncc2N(C)C(=O)C1C (stereo not drawn) [BI-D1870],ribosomal S6 phosphorylation in cells exposed to NRTIs,[5]; [7],greatest impact
same,phosphorylated MDM2 in senescent fibroblasts,[6]; [8],reduced
same,ribosomal S6 phosphorylation in senescent fibroblasts,[6]; [8],reduced
CC[n+]1c(-c2ccccc2)c2cc(N)ccc2c2ccc(N)cc21 [ethidium bromide],mitochondrial network,human fibroblasts,destroyed
OO [hydrogen peroxide],ribosomal S6 and MDM2 phosphorylation at the lower concentrations,"[6]; serum-free 48 hours, exposure 2 hours",increased
same,concentration of maximal activation of ribosomal S6 and MDM2 phosphorylation,[6]; [9],50 µM
same,concentrations at which ribosomal S6 and MDM2 phosphorylation are inhibited,[6]; [9],above 100 μM
N#CC(=C(/N)Sc1ccccc1N)/C(C#N)=C(\N)Sc1ccccc1N [U0126],ribosomal S6 phosphorylation in cells exposed to NRTIs,[6],some decrease
COc1cc(C(C)=O)ccc1O [apocyanin],ribosomal S6 phosphorylation in cells exposed to NRTIs,[5]; [7],did not prevent the increase
O=C1Nc2ccc(I)cc2/C1=C/c1cc(Br)c(O)c(Br)c1 [GW5047],ribosomal S6 phosphorylation in cells exposed to NRTIs,[5]; [7],some decrease
C=C(C)[C@H]1Cc2c(ccc3c2O[C@@H]2COc4cc(OC)c(OC)cc4[C@@H]2C3=O)O1 [rotenone],concentration of sharp inhibition of S6 phosphorylation,"[6]; serum deprived cardiac fibroblasts, 16 hours",50 nM
same,S6 phosphorylation at nanomolar concentrations,"[6]; serum deprived cardiac fibroblasts, 16 hours, 1 to 50 nM",increased
CCc1cncnc1N1CCN(Cc2nc3ccc(C(F)(F)F)cc3[nH]2)CC1 [PF-4708671],MDM2 phosphorylation in cells exposed to NRTIs,[5]; [7],inhibited
same,ribosomal S6 phosphorylation in cells exposed to NRTIs,[5]; [7],inhibited
